Values quoted from earlier work, collected in patent US20070264667A1, “Method and system for assaying transferase activity” (priority 2003, published 2007).

Key:
EGF receptor kinase = EGF receptor kinase (Homo sapiens, UniProt P00533); conditions: ref (22)
IRK = IRK (Homo sapiens, UniProt P06213); conditions: competitive inhibitor of IRK; ref (20); read-out: reported Km

Sequence of EGF receptor kinase (P00533 25-1210): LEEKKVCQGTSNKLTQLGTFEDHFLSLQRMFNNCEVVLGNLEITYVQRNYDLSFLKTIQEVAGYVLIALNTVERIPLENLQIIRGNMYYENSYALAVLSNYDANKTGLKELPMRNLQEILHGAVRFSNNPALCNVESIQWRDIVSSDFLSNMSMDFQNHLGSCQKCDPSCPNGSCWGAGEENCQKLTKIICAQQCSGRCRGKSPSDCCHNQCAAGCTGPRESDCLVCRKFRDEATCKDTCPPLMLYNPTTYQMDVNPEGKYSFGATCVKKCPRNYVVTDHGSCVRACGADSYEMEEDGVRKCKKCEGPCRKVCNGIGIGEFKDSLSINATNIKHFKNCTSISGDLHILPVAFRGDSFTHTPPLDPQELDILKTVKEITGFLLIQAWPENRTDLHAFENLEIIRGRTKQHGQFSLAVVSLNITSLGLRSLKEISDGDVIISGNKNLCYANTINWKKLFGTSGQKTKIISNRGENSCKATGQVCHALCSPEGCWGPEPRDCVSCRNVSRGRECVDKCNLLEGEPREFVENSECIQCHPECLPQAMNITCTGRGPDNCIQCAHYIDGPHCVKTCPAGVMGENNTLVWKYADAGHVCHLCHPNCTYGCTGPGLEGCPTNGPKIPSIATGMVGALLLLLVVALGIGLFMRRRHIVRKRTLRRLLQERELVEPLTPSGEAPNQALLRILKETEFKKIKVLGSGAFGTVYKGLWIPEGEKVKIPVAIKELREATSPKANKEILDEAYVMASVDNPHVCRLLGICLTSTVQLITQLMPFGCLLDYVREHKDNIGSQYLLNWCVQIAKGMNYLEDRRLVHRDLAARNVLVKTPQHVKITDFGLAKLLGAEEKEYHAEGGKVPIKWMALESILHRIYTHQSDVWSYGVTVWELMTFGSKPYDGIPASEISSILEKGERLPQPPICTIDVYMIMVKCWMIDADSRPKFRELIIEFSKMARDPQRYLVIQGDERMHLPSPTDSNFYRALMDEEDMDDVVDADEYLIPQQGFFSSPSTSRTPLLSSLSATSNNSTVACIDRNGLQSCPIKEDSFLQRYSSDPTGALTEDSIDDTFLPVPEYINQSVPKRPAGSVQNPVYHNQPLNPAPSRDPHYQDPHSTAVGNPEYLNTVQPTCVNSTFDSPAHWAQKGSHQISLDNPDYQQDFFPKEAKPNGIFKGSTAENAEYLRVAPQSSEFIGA

Row | Ki (EGF receptor kinase) [nM] | Km (IRK) [µM] | Compound
1 | 11 | – | O=C(O)c1cc(N(Cc2ccccc2O)Cc2cc(O)ccc2O)ccc1O [Lavendustin A]
2 | – | ~24 | 1RS727: peptide inhibitor of IRK with the sequence KKKLPATGDYMNMSPVGD
